Test results reported in EP0933379B1, “NOVEL PEPTIDE DERIVATIVES HAVING THIAZOLYL-ALANINE RESIDUE” (SHIONOGI & CO., LTD., priority 1996, dated 1998).

What was measured:
[1] = system: reserpine-induced hypothermia mice; assay: Anti-reserpine action after intravenous and intracerebroventricular administration of test compounds; assay type: in vivo, mice (ddY, male); details: calculated from AUC of rectal temperature over 180 min versus vehicle; for Dose which can increase the average of body temperatures at 1 °C for 180 min in reserpine-induced hypothermia mice, administered intracerebroventricularly: intracerebroventricular, 0.21 µmol/kg; for Dose which can increase the average of body temperatures at 1 °C for 180 min in reserpine-induced hypothermia mice, administered intravenously: intravenous, 1 µmol/kg
Description: Recerpine-induced hypothermia mice (ddY, male) were prepared by the administration of reserpine (3 mg/kg) at 18 hours before test compounds administration. Mice with their body temperature about 25 °C were used in the experiment. Test compounds were solubilized in saline and 0.1 ml (1 µmol/kg) of them were administered intravenously and 0.005 ml (0.21 µmol/kg) of them were administered intracerebroventricularly, respectively. After the administration, rectal temperature was measured at 30, 60, 120, and 180 min. The area under curve (AUC) of the body temperature-time profile was calculated by the general trapezoidal method. In the control experiment, vehicle (saline) was administered to mice intravenously or intracerebroventricularly and the rectal temperature was measured by the same protocol.
Effective dose: Dose which can increase the average of body temperatures at 1°C for 180 min in reserpine-induced hypothermia mice.

[2] = Change of blood glucose levels after administration of the test compounds to rats; assay type: in vivo, male Wistar rats; details: for blood glucose level as a percentage compared to the baseline level: 50 µmol/kg intravenously, vehicle-treated rats = 100 %
Description: Fasted male Wistar rats (250-350 g) were anaesthesized with urethane. Test compounds were solubilized in saline and administered intravenously (50 µmol/kg). Body temperature of rats were kept at 37 °C by a hot blanket. After the administration, blood was collected from jugular vein at 5, 15, 30, 60, 120, 180, 240, 300, 360, 420, and 480 min and blood glucose levels were measured (BM Test blood sugar. Wako Chemical Indus.). The blood glucose levels at each sampling time in vehicle (saline)-treated rats were defined as the baseline level (100 %). […]

[3] = system: reserpine-induced hypothermia mice; assay: Anti-reserpine action after oral administration of test compounds; assay type: in vivo, mice (ddY, male); details: 10 µmol/kg in saline, calculated from AUC of rectal temperature over 420 min versus vehicle, reserpine 3 mg/kg s.c. 18 hours before
Description: Reserpine-induced hypothemia mice (ddY, male, body weight 30 to 40 g) were prepared by the subcutaneous administration of reserpine in back side of the […] (3 mg/kg) at 18 hours before test compounds administration. Mice with their body temperature about 25 °C were used in the experiment. Test compounds were solubilized in saline and 0.2 ml (10 µmol/kg) of them were administered by sonde for oral administration. After the administration, rectal temperature was measured at 30, 60, 120, 180, 240, 300, […]. The area under curve (AUC) of the body temperature-time profile was calculated by the general trapezoidal method. In the control experiment, vehicle (saline) was administered to mice and the rectal temperature was measured by the same protocol.
Effective dose: Dose which can increase the average of body temperatures at 1 °C for 420 min in reserpine-induced hypothermia mice.

[4] = time 0 min, fasted urethane-anaesthetized rats

Row | SMILES | Dose which can increase the average of body temperatures at 1 °C for 180 min in reserpine-induced hypothermia mice, administered intracerebroventricularly [1] [µmol/kg] | Dose which can increase the average of body temperatures at 1 °C for 180 min in reserpine-induced hypothermia mice, administered intravenously [1] [µmol/kg] | blood glucose level as a percentage compared to the baseline level [2, 4] [%] | blood glucose level as a percentage compared to the baseline level ([2]; time 5 min) [%] | blood glucose level as a percentage compared to the baseline level ([2]; time 15 min) [%] | blood glucose level as a percentage compared to the baseline level ([2]; time 30 min) [%] | blood glucose level as a percentage compared to the baseline level ([2]; time 60 min) [%] | blood glucose level as a percentage compared to the baseline level ([2]; time 120 min) [%] | blood glucose level as a percentage compared to the baseline level ([2]; time 180 min) [%] | blood glucose level as a percentage compared to the baseline level ([2]; time 240 min) [%] | blood glucose level as a percentage compared to the baseline level ([2]; time 300 min) [%] | blood glucose level as a percentage compared to the baseline level ([2]; time 360 min) [%] | blood glucose level as a percentage compared to the baseline level ([2]; time 420 min) [%] | blood glucose level as a percentage compared to the baseline level ([2]; time 480 min) [%] | Dose which can increase the average of body temperatures at 1 °C for 420 min in reserpine-induced hypothermia mice (by oral) [3] [µmol/kg] | acute rise of the blood glucose level and acute fall by the rebound ([2]; result in words, general description)
1 | C[C@H]1OC(=O)N[C@H]1C(=O)N[C@@H](Cc1cscn1)C(=O)N1CCC[C@H]1C(N)=O (mixture of isomers) [I-10, cis-L-5-methyl-2-oxo-oxazolidine-4-yl-carbonyl-3-(4-thiazolyl)-L-alanyl-L-prolineamide] | 0.025 | 0.11 | 107.7 | 119.9 | 104.3 | 109.1 | 112.1 | 126.5 | 105.3 | 110.9 | 104.0 | 100.4 | 102.6 | 111.8 | 1.14 | –
2 | C[C@H]1OC(=O)N(CN2CCOCC2)[C@H]1C(=O)N[C@@H](Cc1cscn1)C(=O)N1CCC[C@H]1C(N)=O (mixture of isomers) [I-40, cis-L-3-morpholinomethyl-5-methyl-2-oxo-oxazolidine-4-yl-carbonyl-3-(4-thiazolyl)-L-alanyl-L-prolineamide] | – | – | – | – | – | – | – | – | – | – | – | – | – | – | 1.65 | –
3 | CN1C(=O)C[C@@H](C(=O)N[C@@H](Cc2cscn2)C(=O)N2CSC[C@H]2C(N)=O)NC1=O [I-5] | – | – | – | – | – | – | – | – | – | – | – | – | – | – | 1.22 | –
4 | C[C@@H]1OC(=O)N[C@@H]1C(=O)N[C@@H](Cc1cscn1)C(=O)N1CSC[C@H]1C(N)=O [I-11] | – | – | – | – | – | – | – | – | – | – | – | – | – | – | 2.03 | –
5 | CC(C)OC(=O)CNC(=O)[C@@H]1CCCN1C(=O)[C@H](Cc1cscn1)NC(=O)[C@H]1NC(=O)O[C@H]1C [I-30] | – | – | – | – | – | – | – | – | – | – | – | – | – | – | 2.59 | –
6 | NC(=O)[C@@H]1CCCN1C(=O)[C@H](Cc1cnc[nH]1)NC(=O)[C@@H]1CCC(=O)N1 [TRH, L-pyroglutamyl-L-histidyl-L-prolineamide] | 0.033 | 9.84 | 116.3 | 114.6 | 123.3 | 137.9 | 153.5 | 139.1 | 119.1 | 112.6 | 113.2 | 103.5 | 102.6 | 97.1 | 42.68 | acutely raises up the blood glucose level
